Experimental data from publication PMC8584173, “The Cytotoxic Effect of Copper (II) Complexes with Halogenated 1,3-Disubstituted Arylthioureas on Cancer and Bacterial Cells” (International Journal of Molecular Sciences, 2021).

Assays:
[1] = test system: Superoxide dismutase [Cu-Zn] (SODC_HUMAN); assay: LC–MS proteome analysis, SODC; format: cell-based, Homo sapiens; conditions: for Protein Intensity, % (SODC): IC50 concentration, % of control
Method: (§1) Enzymes involved in oxidoreductive potential were analyzed in the cell lysates obtained after treatment cells with selected conjugates for 24 h. Cells were washed with phosphate-buffered saline (PBS) and harvested, then centrifuged at 1000× g for 10 min. Then, lysis buffer (containing protease inhibitor, 1% RIPA Lysis and Extraction Buffer (ThermoFisher)) and cold PBS were added, and samples were sonicated three times in ice bath. Next, the cell lysates were centrifuged at 14,000× g at 4 °C for 15 min, and then supernatants were stored at […] before use. Protein concentration was measured by the Bradford method.
(§2) Normalized protein concentrations (5 µg) from cell lysate were precipitated by ice cold (–20 °C) acetonitrile (ACN, Merck, in ratio 1:4). Then, samples were centrifuged (–9 °C, 30 min., 18,000× g), the supernatant was discarded and ACN excess was evaporated using a vacuum centrifuge (5 min., room temp.). Protein pellet was dissolved in 40 mM ammonium bicarbonate. An amount of 500 mM dithiothreitol (DTT, with final concentration 20 mM) and 1 M iodoacetamide (IAA, with final concentration 40 mM) were used for reduction and alkylation processes. After 16 h of incubation in 37 °C with Trypsin Gold (Promega), digested protein samples were diluted with 0.1% formic acid (ThermoFisher) and centrifuged (+2 °C, 30 min, 18,000× g).
(§3) LC–MS analysis was carried out with the use of nanoUHPLC (nanoElute, Bruker) coupled by CaptiveSpray (Bruker) to ESI-Q-TOF mass spectrometer (Compact, Bruker). Two-column separation method was used, i.e., pre-column (300 µm × 5 mm, C18 PepMap 100, 5 µm, 100Å, Thermo Scientific) and Aurora separation column with CSI fitting (75 µm × 250 mm, C18 1.6 µm) in gradient 2% B to 35% B in 90 min with the 300 nL/min flow rate. Mobile phases (A) 0.1% formic acid in water and (B) 0.1% formic acid in ACN were used.
(§4) Sample ionizations were performed at a gas flow of 3.0 L/min, temperature of 150 °C and voltage of the capillary at 1600 V. The quadrupole energy was fixed to 5.0 eV and collision chamber energy 7.0 eV, with an ion transfer time of 90 µs. The ions were analyzed in the positive polarity mode in the range 150–2200 m/z, with the acquisition frequency of the 1 Hz spectrum, as well as with the autoMS/MS system.
(§5) The collected spectra were analyzed and calibrated using DataAnalysis software (Bruker) and then identified in ProteinScape (Bruker) by the MASCOT server. Protein identification was conducted using the online SwissProt and NCBIprot databases, and their references and biological significance were identified using Reactome.org, String.org and KEGG.

[2] = test system: Glutathione S-transferase A1 (GSTA1_HUMAN); assay: LC–MS proteome analysis, GSTA1; format: cell-based, Homo sapiens; conditions: for Protein Intensity, % (GSTA1): IC50 concentration, % of control; for decrease in the amount of GSTA1: SW620, IC50 concentration
Method: as §1, §2, §3, §4, §5

[3] = test system: Glutathione reductase, mitochondrial (GSHR_HUMAN); assay: LC–MS proteome analysis, GSHR; format: cell-based, Homo sapiens; conditions: IC50 concentration, % of control
Method: as §1, §2, §3, §4, §5

[4] = test system: Glutathione S-transferase omega-1 (GSTO1_HUMAN); assay: LC–MS proteome analysis, GSTO1; format: cell-based, Homo sapiens; conditions: IC50 concentration, % of control
Method: as §1, §2, §3, §4, §5

[5] = test system: SW620 cells; assay: Annexin V-FITC/PI flow cytometry, SW620; format: cell-based, human; conditions: SW620, IC50 dose, 72 h
Method: The cells were cultured and harvested under the conditions described in the cell culture section. […] The effect of these compounds on the process of early and late apoptosis and necrosis was determined, as described previously, by dual staining with annexin V-FITC and propidium iodide according to manufacturer’s protocol (Becton Dickinson). The cells that were annexin V-FITC positive and PI-negative were identified as early apoptotic and annexin V-FITC and PI-positive as late apoptotic or necrotic.

[6] = test system: SW480, SW620, PC3 cancer cells; assay: MTT cytotoxicity assay, all cancer cell lines; format: cell-based, human; conditions: span or bound over SW480, SW620, PC3; 72 h; read-out: IC50 over the tested cancer cell lines
Method: The human primary (SW480), metastatic (SW620) colon cancer, metastatic prostate cancer (PC3) and human immortal keratinocyte (HaCaT) cell lines were purchased from the American Type Culture Collection (ATCC, Rockville, USA). The cells were cultured in medium according to protocols (MEM for SW480 and SW620, RPMI 1640 for PC3 and DMEM for HaCaT cells) supplemented with 10% fetal bovine serum (FBS), penicillin (100 U/mL) and streptomycin (100 μg/mL) and cultured in 37 °C/ 5% CO2 humidified incubator. The cells were cultured until appropriate confluence was achieved (80–90%). Next, they were harvested by treatment with 0.25% trypsin (Gibco Life Technologies, USA) and used for studies.
Cells without studied compounds in medium were used as a control.
The cell viability was assessed by determination of MTT salt (3-(4,5-dimethylthiazol-2-yl)-2,5-diphenyltetrazolium bromide) conversion by mitochondrial dehydrogenase. MTT assay was performed as previously described. Experiments were repeated three times. Cell viability was presented as a percentage of MTT reduction in the treated cells versus the control cells. Number of viable cells cultured without studied compounds was assumed to be 100%. Decreased relative MTT level means decreased cell viability. Thiourea complexes with the highest cytotoxic potential assessed by MTT determination (with the lowest IC50) were chosen for subsequent assessments of cytotoxicity mechanisms.

Compound | Protein Intensity, % (SODC) ([1]; PC3, 24 h) [%] | Protein Intensity, % (SODC) ([1]; SW480, 24 h) [%] | Protein Intensity, % (SODC) ([1]; SW620, 24 h) [%] | Protein Intensity, % (GSTA1) ([2]; PC3, 24 h) [%] | Protein Intensity, % (GSTA1) ([2]; SW480, 24 h) [%] | Protein Intensity, % (GSTA1) ([2]; SW620, 24 h) [%] | Protein Intensity, % (GSHR) ([3]; PC3, 24 h) [%] | Protein Intensity, % (GSHR) ([3]; SW480, 24 h) [%] | Protein Intensity, % (GSHR) ([3]; SW620, 24 h) [%] | Protein Intensity, % (GSTO1) ([4]; PC3, 24 h) [%] | Protein Intensity, % (GSTO1) ([4]; SW480, 24 h) [%] | Protein Intensity, % (GSTO1) ([4]; SW620, 24 h) [%] | early apoptosis, % of cells [5] | IC50 [6] [µM] | decrease in the amount of GSTA1 [2] [%] | reduction of SODC intensity ([1]; SW480, IC50 concentration) [%]
O=[N+]([O-])c1cc([N+]2=C(Nc3ccccc3Br)[S][Cu-2]23[S]C(Nc2ccccc2Br)=[N+]3c2ccc(Cl)c([N+](=O)[O-])c2)ccc1Cl [Compound 1, Copper (II) complex with 1-(2-bromophenyl)-3-(4-chloro-3-nitrophenyl)thiourea] | 58.5 | 68.2 | 72.7 | 84.4 | 78.3 | 50.2 | 71.1 | 58.1 | 69.1 | 65.0 | 70.9 | 85.5 | 38.4% ± 2.4% | – | – | –
O=[N+]([O-])c1cc([N+]2=C(Nc3ccc(Br)cc3)[S][Cu-2]23[S]C(Nc2ccc(Br)cc2)=[N+]3c2ccc(Cl)c([N+](=O)[O-])c2)ccc1Cl [Compound 3, Copper (II) complex with 1-(4-bromophenyl)-3-(4-chloro-3-nitrophenyl)thiourea] | 30.9 | 75.3 | 78.2 | 70.6 | 86.6 | 45.2 | 58.9 | 63.1 | 79.2 | 64.0 | 66.0 | 77.0 | approximately 20% | ≤ 10 | 54.8 | –
O=[N+]([O-])c1cc([N+]2=C(Nc3ccc(Cl)c(Cl)c3)[S][Cu-2]23[S]C(Nc2ccc(Cl)c(Cl)c2)=[N+]3c2ccc(Cl)c([N+](=O)[O-])c2)ccc1Cl [Compound 5, Copper (II) complex with 1-(4-chloro-3-nitrophenyl)-3-(3,4-dichlorophenyl)thiourea] | – | – | – | – | – | – | – | – | – | – | – | – | – | ≤ 10 | – | –
O=[N+]([O-])c1cc(NC2=[N+](c3ccc(Cl)c([N+](=O)[O-])c3)[Cu-2]3([S]2)[S]C(Nc2ccc(Cl)c([N+](=O)[O-])c2)=[N+]3c2ccc(Cl)c([N+](=O)[O-])c2)ccc1Cl [Compound 6, Copper (II) complex with 1,3-bis(4-chloro-3-nitrophenyl)thiourea] | – | – | – | – | – | – | – | – | – | – | – | – | – | ≥ 20.3 | – | –
O=[N+]([O-])c1cc([N+]2=C(Nc3ccccc3F)[S][Cu-2]23[S]C(Nc2ccccc2F)=[N+]3c2ccc(Cl)c([N+](=O)[O-])c2)ccc1Cl [Compound 7, Copper (II) complex with 1-(2-fluorophenyl)-3-(4-chloro-3-nitrophenyl)thiourea] | 15.4 | 40.6 | 44.7 | 79.2 | 75.6 | 36.4 | 61.2 | 91.7 | 67.3 | 68.6 | 45.1 | 52.5 | 35.4% ± 2.8% | ≤ 10 | – | 59.4
O=[N+]([O-])c1cc([N+]2=C(Nc3ccc(I)cc3)[S][Cu-2]23[S]C(Nc2ccc(I)cc2)=[N+]3c2ccc(Cl)c([N+](=O)[O-])c2)ccc1Cl [Compound 8, Copper (II) complex with 1-(4-iodophenyl)-3-(4-chloro-3-nitrophenyl)thiourea] | 33.0 | 88.2 | 64.5 | 73.5 | 91.6 | 54.3 | 68.5 | 74.3 | 79.3 | 31.6 | 52.4 | 65.0 | approximately 20% | – | 45.7 | –
